Source: ChEMBL document CHEMBL6177994 (J Med Chem, 2025)
The source made the active and inactive calls. The rule behind the calls is not given here.

How the values were obtained:
[1] = Half life in male cynomolgus monkey at 1 mg/kg, iv measured up to 24 hrs by LC-MS/MS analysis; type: ADME, organism-based, Macaca fascicularis; details: in vivo
[2] = tested on: Protein cereblon/GTPase KRas (Homo sapiens), P01116+Q96SW2 [G12D]; assay: In vivo PROTAC activity at CRBN/KRAS G12D mutant in male Balb/c nude mouse xenografted with human GP2d cells assessed as inhibition of DUSP4 level at 10 mg/kg, iv measured after 7 days; type: functional, organism-based; details: time 7.0 day
Sequence of Protein cereblon/GTPase KRas (Homo sapiens), P01116+Q96SW2 [G12D] (P01116 whole entry G12D): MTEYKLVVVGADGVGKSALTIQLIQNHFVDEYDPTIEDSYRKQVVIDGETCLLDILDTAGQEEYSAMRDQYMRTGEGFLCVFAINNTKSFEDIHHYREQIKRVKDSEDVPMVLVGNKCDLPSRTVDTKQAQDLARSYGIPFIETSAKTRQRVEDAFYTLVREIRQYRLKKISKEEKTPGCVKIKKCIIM
Sequence of Protein cereblon/GTPase KRas (Homo sapiens), P01116+Q96SW2 [G12D] (Q96SW2 whole entry partner): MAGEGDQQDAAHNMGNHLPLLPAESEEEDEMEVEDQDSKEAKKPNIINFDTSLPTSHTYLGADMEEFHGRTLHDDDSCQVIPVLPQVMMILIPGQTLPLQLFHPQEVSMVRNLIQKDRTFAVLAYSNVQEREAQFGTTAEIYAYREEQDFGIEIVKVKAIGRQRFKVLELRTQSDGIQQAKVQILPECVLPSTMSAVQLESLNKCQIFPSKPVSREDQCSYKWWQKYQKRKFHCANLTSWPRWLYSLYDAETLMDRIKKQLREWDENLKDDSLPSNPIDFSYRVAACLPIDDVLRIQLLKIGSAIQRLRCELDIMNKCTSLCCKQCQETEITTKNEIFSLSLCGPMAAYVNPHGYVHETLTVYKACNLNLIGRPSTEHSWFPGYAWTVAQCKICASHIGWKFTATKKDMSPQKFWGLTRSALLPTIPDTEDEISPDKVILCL

[3] = Elimination half life in male ICR mouse colon at 10 mg/kg, iv measured up to 336 hrs by LC-MS/MS analysis; type: ADME, organism-based; details: read-out: beta t1/2 (converted)
[4] = biological target: Protein cereblon/Eukaryotic peptide chain release factor GTP-binding subunit ERF3A (Homo sapiens) (UniProt Q96SW2+P15170); assay: PROTAC activity at CRBN/GSPT1 in human ASPC1 cells assessed as induction of GSPT1 degradation at 10 to 1000 nM measured after 24 hrs by immunoblot analysis; type: cell-based; details: dose 10-1000 nM
Sequence of Protein cereblon/Eukaryotic peptide chain release factor GTP-binding subunit ERF3A (Homo sapiens) (P15170 whole entry, looked up): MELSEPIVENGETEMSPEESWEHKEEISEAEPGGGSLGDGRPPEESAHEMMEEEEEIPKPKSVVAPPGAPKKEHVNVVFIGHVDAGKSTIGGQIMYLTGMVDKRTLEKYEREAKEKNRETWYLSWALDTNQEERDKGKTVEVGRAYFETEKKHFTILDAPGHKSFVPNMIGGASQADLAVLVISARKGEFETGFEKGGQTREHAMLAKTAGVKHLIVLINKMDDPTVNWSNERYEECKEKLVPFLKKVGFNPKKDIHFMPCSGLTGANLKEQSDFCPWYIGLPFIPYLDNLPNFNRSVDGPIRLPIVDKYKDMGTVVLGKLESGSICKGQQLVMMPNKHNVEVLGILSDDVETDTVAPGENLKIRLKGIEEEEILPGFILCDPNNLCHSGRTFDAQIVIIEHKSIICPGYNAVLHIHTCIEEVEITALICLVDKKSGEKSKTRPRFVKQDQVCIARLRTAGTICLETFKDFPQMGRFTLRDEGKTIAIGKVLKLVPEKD
Sequence of Protein cereblon/Eukaryotic peptide chain release factor GTP-binding subunit ERF3A (Homo sapiens) (Q96SW2 whole entry, looked up): as the sequence (Q96SW2 whole entry partner) above

[5] = Inhibition of ERK phosphorylation in human AGS cells harbouring KRAS G12D mutant measured after 24 hrs; type: cell-based
[6] = Metabolic stability in human liver microsomes assessed as half life at 1 uM preincubated for 3 mins with NADPH and measured up to 60 mins by LC-MS/MS analysis; type: ADME, Microsome; details: time < 63 min
[7] = tested on: HCC1588; assay: Antiproliferative activity against human HCC1588 cells harbouring KRAS G12D mutant assessed as inhibition of cell growth measured after 72 hrs by Cell titer glo method; type: functional, cell-based
[8] = tested on: Panc 04.03; assay: Antiproliferative activity against human Panc 04.03 cells harbouring KRAS G12D mutant assessed as inhibition of cell growth measured after 72 hrs by Cell titer glo method; type: functional, cell-based
[9] = Antitumor activity against human PK-59 cells xenografted in female Balb/c nude mouse model assessed as tumor growth inhibition at 3 mg/kg, iv QW measured after 28 days relative to control; type: functional; details: PK-59, 672 h, time 28 day, read-out: TGI
[10] = tested on: Protein cereblon/GTPase KRas (Homo sapiens), P01116+Q96SW2 [G12D]; assay: PROTAC activity at CRBN/KRAS G12D mutant in human ASPC1 cells assessed as induction of KRAS G12D mutant degradation at 1 nM measured up to 36 hrs by immunoblot analysis; type: cell-based
[11] = tested on: SW1990; assay: Antiproliferative activity against human SW1990 cells harbouring KRAS G12D mutant assessed as inhibition of cell growth measured after 72 hrs by Cell titer glo method; type: functional, cell-based
[12] = Antitumor activity against human Panc 04.03 cells harbouring KRAS G12D mutant xenografted in female Balb/c nude mouse model assessed as tumor regression at 1 to 10 mg/kg, iv QW administered weekly and measured after 28 days relative to control; type: functional; details: dose 1-10 mg/kg, time 28 day
[13] = biological target: Cytochrome P450 2D6 (Homo sapiens, UniProt P10635); assay: Inhibition of CYP2D6 in human liver microsomes using dextromethorphan as substrate at 10 uM incubated for 15 mins in presence of NADPH by LC/MS analysis; type: ADME, Microsome; details: 0.25 h
Sequence of Cytochrome P450 2D6 (P10635 whole entry): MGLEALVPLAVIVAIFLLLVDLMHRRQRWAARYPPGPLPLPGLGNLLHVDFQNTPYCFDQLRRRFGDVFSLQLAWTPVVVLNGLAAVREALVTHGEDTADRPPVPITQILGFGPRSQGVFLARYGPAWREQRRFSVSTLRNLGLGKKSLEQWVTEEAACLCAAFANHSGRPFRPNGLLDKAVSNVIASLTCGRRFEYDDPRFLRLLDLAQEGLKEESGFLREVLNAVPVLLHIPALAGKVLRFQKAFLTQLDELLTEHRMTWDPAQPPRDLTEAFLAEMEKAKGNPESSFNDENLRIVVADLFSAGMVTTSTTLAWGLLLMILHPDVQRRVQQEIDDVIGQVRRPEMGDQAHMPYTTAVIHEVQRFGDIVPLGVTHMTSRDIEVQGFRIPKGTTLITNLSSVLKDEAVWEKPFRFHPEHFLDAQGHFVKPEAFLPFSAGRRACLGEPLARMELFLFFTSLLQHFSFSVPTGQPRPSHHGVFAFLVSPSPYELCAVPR

[14] = tested on: AGS; assay: Antiproliferative activity against human AGS cells harbouring KRAS G12D mutant assessed as inhibition of cell growth measured after 72 hrs by Cell titer glo method; type: functional, cell-based
[15] = tested on: PSN1; assay: Antiproliferative activity against human PSN1 cells harbouring KRAS G12R mutant assessed as inhibition of cell growth measured after 72 hrs by Cell titer glo method; type: functional, cell-based
[16] = Toxicity in female Balb/c nude mouse xenografted with human GP2d cells assessed as drug tolerance at 1 to 10 mg/kg, iv Q2W measured after 28 days; type: organism-based; details: in vivo, 672 h, dose 1-10 mg/kg, time 28 day
[17] = Antitumor activity against human GP2d cells xenografted in female Balb/c nude mouse model assessed as tumor growth inhibition at 10 mg/kg, iv QW administered […] and measured after 28 days relative to control; type: functional; details: 672 h, time 28 day, read-out: TGI
[18] = biological target: Cytochrome P450 2C9 (Homo sapiens, UniProt P11712); assay: Inhibition of CYP2C9 in human liver microsomes using diclofenac as substrate at 10 uM incubated for 15 mins in presence of NADPH by LC/MS analysis; type: ADME, Microsome; details: 0.25 h
Sequence of Cytochrome P450 2C9 (P11712 whole entry): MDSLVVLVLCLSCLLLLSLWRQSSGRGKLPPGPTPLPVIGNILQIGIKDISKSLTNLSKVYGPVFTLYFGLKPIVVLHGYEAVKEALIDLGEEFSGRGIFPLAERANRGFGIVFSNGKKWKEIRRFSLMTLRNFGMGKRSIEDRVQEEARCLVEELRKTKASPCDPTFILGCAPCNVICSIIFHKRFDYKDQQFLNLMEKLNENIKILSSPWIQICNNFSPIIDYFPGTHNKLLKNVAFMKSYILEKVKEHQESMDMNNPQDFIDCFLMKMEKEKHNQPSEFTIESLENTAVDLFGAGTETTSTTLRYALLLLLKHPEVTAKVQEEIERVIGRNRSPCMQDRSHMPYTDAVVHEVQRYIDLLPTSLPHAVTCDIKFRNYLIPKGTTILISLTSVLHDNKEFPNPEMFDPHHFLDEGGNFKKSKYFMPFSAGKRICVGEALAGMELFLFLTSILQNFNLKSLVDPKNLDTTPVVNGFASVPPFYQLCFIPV

[19] = tested on: HPAC; assay: Antiproliferative activity against human HPAC cells harbouring KRAS G12D mutant assessed as inhibition of cell growth measured after 72 hrs by Cell titer glo method; type: functional, cell-based
[20] = tested on: NCI-H727; assay: Antiproliferative activity against human NCI-H727 cells harbouring KRAS G12V mutant assessed as inhibition of cell growth measured after 72 hrs by Cell titer glo method; type: functional, cell-based
[21] = tested on: CCRF-CEM; assay: Antiproliferative activity against human CCRF-CEM cells harbouring KRAS G12D mutant assessed as inhibition of cell growth measured after 72 hrs by Cell titer glo method; type: functional, cell-based
[22] = tested on: NCI-H358; assay: Antiproliferative activity against human NCI-H358 cells harbouring KRAS G12C mutant assessed as inhibition of cell growth measured after 72 hrs by Cell titer glo method; type: functional, cell-based
[23] = tested on: ASPC1; assay: Effect on CK1alpha level in human ASPC1 cells at 10 nM measured after 8 hrs by Western blot analysis; type: functional, cell-based
[24] = Drug concentration in male Balb/c nude mouse plasma xenografted with human PK-59 cells at 10 mg/kg, iv administered as single dose measured after 168 hrs by LC-MS/MS analysis; type: ADME, organism-based
[25] = Metabolic stability in dog liver microsomes assessed as half life at 1 uM preincubated for 3 mins with NADPH and measured up to 60 mins by LC-MS/MS analysis; type: ADME, Canis lupus familiaris, Microsome; details: time < 63 min
[26] = biological target: Cytochrome P450 2C19 (Homo sapiens, UniProt P33261); assay: Inhibition of CYP2C19 in human liver microsomes using S-mephenytoin as substrate at 10 uM incubated for 15 mins in presence of NADPH by LC/MS analysis; type: ADME, Microsome; details: 0.25 h
Sequence of Cytochrome P450 2C19 (P33261 whole entry): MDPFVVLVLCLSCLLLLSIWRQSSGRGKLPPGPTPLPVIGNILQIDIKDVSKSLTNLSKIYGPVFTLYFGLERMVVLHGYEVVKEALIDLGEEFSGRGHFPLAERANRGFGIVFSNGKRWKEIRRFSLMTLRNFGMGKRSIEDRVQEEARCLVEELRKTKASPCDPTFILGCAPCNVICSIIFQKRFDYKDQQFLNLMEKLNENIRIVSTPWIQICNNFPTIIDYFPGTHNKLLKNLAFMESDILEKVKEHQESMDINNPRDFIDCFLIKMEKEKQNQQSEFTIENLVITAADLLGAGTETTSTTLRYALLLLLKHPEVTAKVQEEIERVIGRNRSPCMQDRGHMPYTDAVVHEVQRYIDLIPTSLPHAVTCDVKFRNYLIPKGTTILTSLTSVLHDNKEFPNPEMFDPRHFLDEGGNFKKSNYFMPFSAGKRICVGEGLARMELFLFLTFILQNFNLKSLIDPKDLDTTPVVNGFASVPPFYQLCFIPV

[27] = Metabolic stability in monkey liver microsomes assessed as intrinsic clearance at 1 uM preincubated for 3 mins with NADPH and measured up to 60 mins by LC-MS/MS analysis; type: ADME, Macaca mulatta, Microsome; details: rhesus monkey, time < 63 min, read-out: CLH
[28] = tested on: A-427; assay: Antitumor activity against human A-427 cells harbouring KRAS G12D mutant xenografted in female Balb/c nude mouse model assessed as tumor regression at 1 to 10 mg/kg, iv QW administered weekly and measured after 28 days relative to control; type: functional; details: dose 1-10 mg/kg, time 28 day
[29] = Metabolic stability in monkey liver microsomes assessed as half life at 1 uM preincubated for 3 mins with NADPH and measured up to 60 mins by LC-MS/MS analysis; type: ADME, Macaca mulatta, Microsome; details: rhesus monkey, time < 63 min
[30] = AUC (0 to t) in male Sprague-Dawley rat at 1 mg/kg, iv measured up to 24 hrs by LC-MS/MS analysis; type: ADME, organism-based; details: in vivo
[31] = tested on: A-427; assay: Antiproliferative activity against human A-427 cells harbouring KRAS G12D mutant assessed as inhibition of cell growth measured after 72 hrs by Cell titer glo method; type: functional, cell-based
[32] = tested on: Protein cereblon/GTPase KRas (Homo sapiens), P01116+Q96SW2 [G12D]; assay: PROTAC activity at CRBN/KRAS G12D mutant in human ASPC1 cells assessed as induction of KRAS G12D mutant degradation 0.01 to 100 nM measured after 24 hrs by immunoblot analysis relative to control; type: cell-based; details: dose 0.01-100 nM

C#Cc1c(F)ccc2cc(O)cc(-c3ncc4c(N5CC6CCC(C5)N6)nc(OCC5(CN6CCC7(CC6)CC(N6CCC(c8cc9c(cc8F)c(N8CCC(=O)NC8=O)nn9C)CC6)C7)CC5)nc4c3F)c12
half-life [1]: 12.4 h | Activity [2]: Active | half-life [3]: 94.6 h | Activity [4]: inactive | IC50 [5]: 10.6 nM | half-life at 1 µM [6]: 2.57 h | Activity [7]: Active; Compound Showed Stronger Antiproliferative Activity Compared To Mrtx1133 | Activity [8]: Active; Compound Showed Stronger Antiproliferative Activity Compared To Mrtx1133 | inhibition in vivo at 3 mg/kg [9]: 42.9% | Activity [10]: Active | Activity [11]: Active; Compound Showed Stronger Antiproliferative Activity Compared To Mrtx1133 | Activity [12]: >30% | inhibition (INH) [13]: Not_active | IC50 [14]: 1.01 nM | Activity [15]: Weak_effect; Compound Showed Weaker Potency In Antiproliferative Activity Compared To Mrtx1133 | Activity [16]: Non-toxic | inhibition in vivo at 10 mg/kg [17]: 94.7% | inhibition (INH) [18]: Not_active | Activity [19]: Active; Compound Showed Stronger Antiproliferative Activity Compared To Mrtx1133 | Activity [20]: Weak_effect; Compound Showed Weaker Potency In Antiproliferative Activity Compared To Mrtx1133 | Activity [21]: Active; Compound Showed Stronger Antiproliferative Activity Compared To Mrtx1133 | Activity [22]: Weak_effect; Compound Showed Weaker Potency In Antiproliferative Activity Compared To Mrtx1133 | Activity [23]: inactive | concentration at 168 h [24]: 5.3 ng/mL | half-life at 1 µM [25]: 7.22 h | inhibition (INH) [26]: Not_active | CLint scaled at 1 µM [27]: 4.3 mL/min/kg | Activity [28]: >30% | half-life at 1 µM [29]: 7.22 h | AUC(0-t) at 24 h [30]: 0.531 µM·h | Activity [31]: Active; Compound Showed Stronger Antiproliferative Activity Compared To Mrtx1133 | Emax [32]: 89%
